Data published in patent publication US20150190369A1, “QUERCETIN-3-GLUCOSIDE AND USES THEREOF” (priority 2012, published 2015).
“Also recorded” adds a separate entry of the source.

Tests used:
Huh7 cells = test: LDL uptake assay with bodipy-LDL; type: cell-based, human; conditions: Huh7, 5 μM Q3G for 24 h
Procedure: Huh7 cells were seeded in 96-well black-bottom plates at 4×10^4 cells/well in 0.1 ml complete medium and allowed to attach by overnight incubation at 37° C. They were rinsed with PBS-D, overlaid with 0.1 ml of DMEM/10% LPDS and incubated at 37° C. for 24 h. After a PBS-D rinse, they were overlaid with 0.1 ml DMEM/0.5% LPDS containing or not 5 μM Q3G and incubated 37° C. for 24 h. To assay for LDL uptake ability, cells were rinsed, first with pre-warmed (37° C.) PBS-D, then with pre-warmed DMEM/0.5% LPDS. They were overlaid with 75 μl of the latter medium containing […] bodipy-LDL, and then incubated at 37° C. for 15 min or 30 min to allow LDLR-mediated endocytosis of the fluorescent lipoprotein. […] Intracellular fluorescence was measured in a SpectraMax Gemini XS fluorescence plate reader (Molecular Devices) at the excitation and emission wavelengths of 485 and 535 nm, respectively. Non-specific fluorescence was measured by incubating cells in medium containing bodipy-LDL (20 μg/ml) and a 12.5× excess of non-fluorescent LDL (250 μg/ml).
To verify this prediction, cells were incubated overnight in medium supplemented with LPDS to promote expression of the LDLR; they were then treated with 5 μM Q3G for 24 h and exposed to fluorescent bodipy-LDL for 15 or 30 min; after washing, accumulated intracellular LDL was measured by fluorescence spectrometry.

PCSK9 = test: ELISA for secreted PCSK9 in conditioned media of Huh7 cells; type: cell-based, human; conditions: Huh7, 24 h
Procedure: Media were collected and PCSK9 levels therein were determined by ELISA.
At passage, Huh7 cells were routinely seeded at sub-confluence (˜10^6 cells/10-cm dish) in Dulbecco's modified Eagle's medium (DMEM) containing 10% fetal bovine serum (FBS) or LPDS (for experiments) and 50 μg/ml gentamycin. They were incubated overnight at 37° C., in a humidified 5% CO2-95% air atmosphere. Cells were treated or not with Q3G at defined concentrations and for defined lengths of time. Media were collected and centrifuged at 200 g for 5 min to sediment suspended cells; supernatants were collected and supplemented with 0.33 volumes of a 3×-concentrated PIC. Cell monolayers were rinsed with ice-cold phosphate-buffered saline (PBS); they were overlaid with 0.5 of the RIPA lysis buffer (50 mM Tris-HCl, pH 8, 150 mM NaCl, 1% NP-40, 0.5% Na-deoxycholate and 0.1% SDS) supplemented with 1× PIC. After 20 min in an ice bath, the lysates were centrifuged at 14,000 g and 4° C. for 20 min, and supernatants were collected. Conditioned media and lysates were stored at −20° C. until analysis.
The assays for PCSK9 and insulin were conducted as prescribed by kit manufacturers, using a Thermo Scientific plate reader. For example, PCSK9 levels in conditioned media were measured using the human PCSK9 ELISA kit from Circulex, as specified the manufacturer. The assay was a sandwich immunoassay using two antibodies (A and B) recognizing different PCSK9 epitopes. Briefly, aliquot of diluted media were overlaid on wells coated with anti-PCSK9 antibody A. After 1-h incubation, the wells were washed, overlaid with a solution of HRP-conjugated anti-PCSK9 antibody B, and incubated for 1 h. They were washed again, and overlaid with a solution of tetra-methylbenzidine as a chromogenic substrate for HRP. After 15 min, the reaction was stopped with ammonium sulfate and the absorbance of the reaction mixtures measured by spectrophotometry at 450 nm. All the steps were performed at room temperature. Standards consisted of recombinant human PCSK9.

MIN6 β-cells = test: GSIS assay (glucose-stimulated insulin secretion, insulin ELISA); type: cell-based, mouse; conditions: MIN6, stimulation with 18 mM glucose, 30 min
Procedure: The assays for PCSK9 and insulin were conducted as prescribed by kit manufacturers, using a Thermo Scientific plate reader. For example, PCSK9 levels in conditioned media were measured using the human PCSK9 ELISA kit from Circulex, as specified the manufacturer. The assay was a sandwich immunoassay using two antibodies (A and B) recognizing different PCSK9 epitopes. Briefly, aliquot of diluted media were overlaid on wells coated with anti-PCSK9 antibody A. After 1-h incubation, the wells were washed, overlaid with a solution of HRP-conjugated anti-PCSK9 antibody B, and incubated for 1 h. They were washed again, and overlaid with a solution of tetra-methylbenzidine as a chromogenic substrate for HRP. After 15 min, the reaction was stopped with […] and the absorbance of the reaction mixtures measured by spectrophotometry at 450 nm. All the steps were performed at room temperature. Standards consisted of recombinant human PCSK9.
Cells were seeded and grown to 80% confluence. Prior to GSIS assay, fresh medium containing 3 mM Glucose and 10% FBS medium (low-glucose medium or LGM) without or with Q3G was substituted and incubation resumed for 6 h to adapt the cells to low glucose. Fresh LGM without or with Q3G was substituted and supplemented or not with glucose to the final concentration of 18 mM. […]

O=c1c(O[C@@H]2O[C@H](CO)[C@@H](O)[C@H](O)[C@H]2O)c(-c2ccc(O)c(O)c2)oc2cc(O)cc(O)c12 [Q3G, quercetin-3-O-β-D-glucoside]
accumulated intracellular LDL versus untreated cells (Huh7 cells; bodipy-LDL for 15 min): 4 fold
accumulated intracellular LDL versus untreated cells (Huh7 cells; bodipy-LDL for 30 min): 2.5 fold
level of PCSK9 in spent media (PCSK9; co-treatment 5 μM Q3G with simvastatin 0.2 and 1 μM, versus simvastatin alone): reducing
decrease of PCSK9 in conditioned media (PCSK9; highest Q3G concentration tested (0 to 10 μM)): 35%
glucose-stimulated insulin secretion, treated versus untreated cells (MIN6 β-cells): comparable; also recorded: without affecting
